Reference: US20250352663A1 (priority 2022, published 2025)

What was measured:
human tumor cells = details: cited from earlier work
B16-F10 melanoma cells = assay: B16-F10 cell growth / proliferation monitoring; type: cell-based; details: eATP, 2 mM, compared with AuNC@ATP 2.25 μM
tumor = details: intraperitoneal injection of ATP (50 mM); cited from earlier work
[1] = test system: human prostate cancer xenografts; details: daily intraperitoneal administration of ATP (25 mM); cited from earlier work

Compound	growth of human tumor cells (cell cycle) (human tumor cells)	inhibiting B16-F10 cell proliferation (B16-F10 melanoma cells)	tumor size (tumor)	tumor regression [1]
Nc1ncnc2c1ncn2[C@@H]1O[C@H](COP(=O)(O)OP(=O)(O)O)[C@@H](O)[C@H]1O [ADP]	arrest of growth in the S phase	–	–	–
Nc1ncnc2c1ncn2[C@@H]1O[C@H](COP(=O)(O)OP(=O)(O)OP(=O)(O)O)[C@@H](O)[C@H]1O [free ATP, Adenosine triphosphate]	arrest of growth in the S phase	does not achieve the same level of effectiveness	effectively reduced tumor size	significant tumor regression
